Source: ChEMBL document CHEMBL1201862, “PubChem BioAssay data set” (2004)
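In this assay, cells in 96-well plates receive the compound at five concentrations for 48 hours. Endpoints are linearly interpolated between the surrounding concentrations. GI50: concentration for 50% inhibition of growth.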 Calls of active or inactive are those of the source. No stated cut-off is given here; in the data, active = GI50 up to about 1.1 µM and inactive = higher.

How the values were obtained:
Experiment in all cases: NCI tumour cell line growth inhibition, 48 h
[1] = test system: KM12
[2] = test system: Malme-3M
[3] = test system: SF-268
[4] = test system: M14
[5] = test system: HOP-62
[6] = test system: COLO 205
[7] = test system: SNB-19
[8] = test system: SK-MEL-2
[9] = test system: NCI-H23
[10] = test system: SF-295
[11] = test system: UACC-62
[12] = test system: SK-OV-3
[13] = test system: RXF 393
[14] = test system: HOP-92
[15] = test system: HCC 2998
[16] = test system: SNB-78
[17] = test system: OVCAR-3
[18] = test system: CCRF-CEM
[19] = test system: HT-29
[20] = test system: UO-31
[21] = test system: NCI-H522
[22] = test system: IGROV-1
[23] = test system: NCI-H460
[24] = test system: MOLT-4
[25] = test system: UACC-257
[26] = test system: SK-MEL-28
[27] = test system: OVCAR-4
[28] = test system: HCT-116
[29] = test system: ACHN
[30] = test system: LXFL 529
[31] = test system: DMS-114
[32] = test system: RPMI-8226
[33] = test system: SF-539
[34] = test system: M19-MEL
[35] = test system: SNB-75
[36] = test system: K562
[37] = test system: HL-60
[38] = test system: OVCAR-8
[39] = test system: A549
[40] = test system: NCI-H226
[41] = test system: TK-10
[42] = test system: HCT-15
[43] = test system: 786-0
[44] = test system: OVCAR-5
[45] = test system: KM-20L2
[46] = test system: SN12C
[47] = test system: U-251
[48] = test system: DLD-1
[49] = test system: SK-MEL-5
[50] = test system: SR
[51] = test system: CAKI-1
[52] = test system: EKVX
[53] = test system: SW-620
[54] = test system: DMS-273
[55] = test system: LOX IMVI

CCN(CC)CC/N=C\c1c(O)c(O)c(C(C)C)c2cc(C)c(-c3c(C)cc4c(C(C)C)c(O)c(O)c(/C=N/CCN(CC)CC)c4c3O)c(O)c12
GI50 [1]: 1.1 µM (active)
GI50 [2]: 4.16 µM (inactive)
GI50 [3]: 4 µM (inactive)
GI50 [4]: 1.83 µM (inactive)
GI50 [5]: 2.65 µM (inactive)
GI50 [6]: 3.54 µM (inactive)
GI50 [7]: 1.65 µM (inactive)
GI50 [8]: 2.3 µM (inactive)
GI50 [9]: 2.95 µM (inactive)
GI50 [10]: 1.58 µM (inactive)
GI50 [11]: 2.55 µM (inactive)
GI50 [12]: 3.46 µM (inactive)
GI50 [13]: 1.33 µM (inactive)
GI50 [14]: 2.38 µM (inactive)
GI50 [15]: 2.11 µM (inactive)
GI50 [16]: 0.716 µM (active)
GI50 [17]: 1.59 µM (inactive)
GI50 [18]: 0.354 µM (active)
GI50 [19]: 1.77 µM (inactive)
GI50 [20]: 2.93 µM (inactive)
GI50 [21]: 0.959 µM (active)
GI50 [22]: 2.74 µM (inactive)
GI50 [23]: 2.32 µM (inactive)
GI50 [24]: 1.29 µM (inactive)
GI50 [25]: 5.53 µM (inactive)
GI50 [26]: 3.17 µM (inactive)
GI50 [27]: 0.959 µM (active)
GI50 [28]: 1.82 µM (inactive)
GI50 [29]: 2.66 µM (inactive)
GI50 [30]: 1.46 µM (inactive)
GI50 [31]: 1.58 µM (inactive)
GI50 [32]: 1.53 µM (inactive)
GI50 [33]: 2.2 µM (inactive)
GI50 [34]: 3.45 µM (inactive)
GI50 [35]: 5.31 µM (inactive)
GI50 [36]: 1.02 µM (active)

COC(=O)C1=C(C(=O)OC)C2C(C)=CC(C)=CN2C(C#N)=C(SC)S1 (stereo not drawn)
GI50 [2]: 24.7 µM (inactive)
GI50 [3]: 20.6 µM (inactive)
GI50 [4]: 18 µM (inactive)
GI50 [37]: 19.5 µM (inactive)
GI50 [38]: 22.4 µM (inactive)
GI50 [5]: 51.8 µM (inactive)
GI50 [39]: 37.2 µM (inactive)
GI50 [6]: 17.4 µM (inactive)
GI50 [40]: 17 µM (inactive)
GI50 [41]: 35.2 µM (inactive)
GI50 [42]: 19.7 µM
GI50 [7]: 52.4 µM (inactive)
GI50 [8]: 23.1 µM (inactive)
GI50 [9]: 17.7 µM (inactive)
GI50 [10]: 31 µM (inactive)
GI50 [43]: 30.8 µM (inactive)
GI50 [44]: 35.3 µM (inactive)
GI50 [45]: 32.7 µM (inactive)
GI50 [46]: 21.4 µM (inactive)
GI50 [11]: > 10 µM (inactive)
GI50 [12]: 46.3 µM (inactive)
GI50 [13]: 16.1 µM (inactive)
GI50 [47]: 31 µM (inactive)
GI50 [15]: 37.2 µM (inactive)
GI50 [16]: 41.3 µM (inactive)
GI50 [48]: 22.6 µM (inactive)
GI50 [17]: 28.4 µM (inactive)
GI50 [49]: 14.6 µM (inactive)
GI50 [18]: 17.4 µM (inactive)
GI50 [19]: 21.1 µM (inactive)
GI50 [20]: 12.7 µM (inactive)
GI50 [21]: 16.1 µM (inactive)
GI50 [22]: > 10 µM (inactive)
GI50 [23]: > 100 µM (inactive)
GI50 [24]: 23.6 µM (inactive)
GI50 [50]: 19 µM (inactive)
GI50 [25]: 24.3 µM (inactive)
GI50 [26]: 19.3 µM (inactive)
GI50 [51]: 20.3 µM (inactive)
GI50 [28]: 15 µM (inactive)
GI50 [52]: 25.9 µM (inactive)
GI50 [53]: 19.9 µM (inactive)
GI50 [29]: 28.4 µM (inactive)
GI50 [30]: 16.9 µM (inactive)
GI50 [31]: 22.6 µM (inactive)
GI50 [32]: 21.6 µM (inactive)
GI50 [54]: 31.8 µM (inactive)
GI50 [33]: 19.2 µM (inactive)
GI50 [34]: 17.7 µM (inactive)
GI50 [55]: 17.9 µM (inactive)
GI50 [35]: 23.2 µM (inactive)
GI50 [36]: 20.7 µM (inactive)
